In US6809065B2, “Herbicide containing substituted pyrazole derivative as active ingredient” (SDS Biotech K.K., priority 2001, dated 2004):

Legend:
Chenopodium album [1] = test: Upland field foliage treatment (Test Example 1); type: in vivo; details: foliage treatment 14th day after sowing, wettable powder, 1 kg active ingredient per hectare, evaluated 21st day after application
How it was run: (§1)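 Foliage application took place two weeks after sowing, at an active-ingredient rate of 1 kg/ha from a water-diluted wettable powder. Rating followed on the 21st day after application, using an index scale on which crop values rise as injury increases.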

Digitaria adscendens [2] = test: Upland field foliage treatment (Test Example 1); type: in vivo; details: foliage treatment 14th day after sowing, wettable powder, 1 kg active ingredient per hectare, evaluated 21st day after application
How it was run: as §1

Setaria viridis [3] = test: Upland field foliage treatment (Test Example 1); type: in vivo; details: foliage treatment 14th day after sowing, wettable powder, 1 kg active ingredient per hectare, evaluated 21st day after application
How it was run: as §1

Stellaria media [4] = test: Upland field foliage treatment (Test Example 1); type: in vivo; details: foliage treatment 14th day after sowing, wettable powder, 1 kg active ingredient per hectare, evaluated 21st day after application
How it was run: as §1

soybean (Glycine max) [5] = test: Upland field foliage treatment (Test Example 1), crop; type: in vivo; details: foliage treatment 14th day after sowing, 1 kg active ingredient per hectare, evaluated 21st day, lower index = higher safety
How it was run: as §1

[6] = tested on: wheat (Triticum aestivum); test: as above; type: in vivo; details: foliage treatment 14th day after sowing, 1 kg active ingredient per hectare, evaluated 21st day, lower index = higher safety
How it was run: as §1

Chenopodium album [7] = test: Upland soil treatment (Test Example 2); type: in vivo; details: soil surface treatment next day after sowing, wettable powder, 1 kg active ingredient per hectare, evaluated 21st day after application
How it was run: (§2)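 Upland soil in pots was sown with weed and crop seeds, covered with about 1 cm soil, and next day sprayed on the surface with wettable-powder formulation at 1 kg active ingredient per hectare. Effects were scored by index on day 21; higher index means stronger weed control, lower index means better crop safety.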

Digitaria adscendens [8] = test: Upland soil treatment (Test Example 2); type: in vivo; details: soil surface treatment next day after sowing, wettable powder, 1 kg active ingredient per hectare, evaluated 21st day after application
How it was run: as §2

Setaria viridis [9] = test: Upland soil treatment (Test Example 2); type: in vivo; details: soil surface treatment next day after sowing, wettable powder, 1 kg active ingredient per hectare, evaluated 21st day after application
How it was run: as §2

Stellaria media [10] = test: Upland soil treatment (Test Example 2); type: in vivo; details: soil surface treatment next day after sowing, wettable powder, 1 kg active ingredient per hectare, evaluated 21st day after application
How it was run: as §2

soybean (Glycine max) [11] = test: Upland soil treatment (Test Example 2), crop; type: in vivo; details: soil surface treatment next day after sowing, 1 kg active ingredient per hectare, evaluated 21st day, lower index = higher safety
How it was run: as §2

[12] = tested on: wheat (Triticum aestivum); test: Upland soil treatment (Test Example 2), crop; type: in vivo; details: soil surface treatment next day after sowing, 1 kg active ingredient per hectare, evaluated 21st day, lower index = higher safety
How it was run: as §2

Echinochloa spp. = test: Paddy field treatment (Test Example 3); type: in vivo, Echinochloa crusgalli; details: paddy pot, submerged 4 cm, dropped on water surface 10th day after transplantation, 1 kg active ingredient per hectare, evaluated 21st day
How it was run: (§3)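 Index scores for herbicidal effect were read 21 days after treatment, higher meaning stronger effect. Treatment was a water-diluted wettable powder dropped onto flooded paddy soil at 1 kg active ingredient per hectare, 10 days after rice transplantation.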

Ammannia multiflora = test: Paddy field treatment (Test Example 3); type: in vivo; details: paddy pot, submerged 4 cm, dropped on water surface 10th day after transplantation, 1 kg active ingredient per hectare, evaluated 21st day
How it was run: as §3

Monochoria vaginalis = test: Paddy field treatment (Test Example 3); type: in vivo; details: paddy pot, submerged 4 cm, dropped on water surface 10th day after transplantation, 1 kg active ingredient per hectare, evaluated 21st day
How it was run: as §3

Scirpus juncoides = test: Paddy field treatment (Test Example 3); type: in vivo; details: paddy pot, submerged 4 cm, dropped on water surface 10th day after transplantation, 1 kg active ingredient per hectare, evaluated 21st day
How it was run: as §3

[13] = tested on: rice (Oryza sative, variety: Koshihikari); test: Paddy field treatment (Test Example 3), crop; type: in vivo, Oryza sativa; details: transplanted rice two-leaf period, water surface treatment 10th day after transplantation, 1 kg active ingredient per hectare, evaluated 21st day, lower index = higher safety
How it was run: as §3

SMILES	Herbicidal activity Chenopodium album (Chenopodium album [1])	Herbicidal activity Digitaria adscendens (Digitaria adscendens [2])	Herbicidal activity Setaria viridis (Setaria viridis [3])	Herbicidal activity Stellaria media (Stellaria media [4])	Herbicidal activity Glycine max (soybean (Glycine max) [5])	Herbicidal activity Triticum aestivum [6]	Herbicidal activity Chenopodium album (Chenopodium album [7])	Herbicidal activity Digitaria adscendens (Digitaria adscendens [8])	Herbicidal activity Setaria viridis (Setaria viridis [9])	Herbicidal activity Stellaria media (Stellaria media [10])	Herbicidal activity Glycine max (soybean (Glycine max) [11])	Herbicidal activity Triticum aestivum [12]	Herbicidal activity Echinochloa spp. (Echinochloa spp.)	Herbicidal activity Ammannia multiflora (Ammannia multiflora)	Herbicidal activity Monochoria vaginalis (Monochoria vaginalis)	Herbicidal activity Scirpus juncoides (Scirpus juncoides)	Herbicidal activity Oryza sativa [13]
COC=C(Cn1ccc(-c2ccccc2)n1)C(=O)OC [Compound 1]	5 (herbicidal effect of not less than 90% by weight)	5 (herbicidal effect of not less than 90% by weight)	5 (herbicidal effect of not less than 90% by weight)	5 (herbicidal effect of not less than 90% by weight)	1 (herbicidal effect of not less than 10% by weight and less than 30% by weight)	1 (herbicidal effect of not less than 10% by weight and less than 30% by weight)	4 (herbicidal effect of not less than 70% by weight and less than 90% by weight)	5 (herbicidal effect of not less than 90% by weight)	4 (herbicidal effect of not less than 70% by weight and less than 90% by weight)	4 (herbicidal effect of not less than 70% by weight and less than 90% by weight)	0 (herbicidal effect of not less than 0% by weight and less than 10% by weight)	0 (herbicidal effect of not less than 0% by weight and less than 10% by weight)	5 (herbicidal effect of not less than 90% by weight)	4 (herbicidal effect of not less than 70% by weight and less than 90% by weight)	5 (herbicidal effect of not less than 90% by weight)	5 (herbicidal effect of not less than 90% by weight)	1 (herbicidal effect of not less than 10% by weight and less than 30% by weight)
COC=C(Cn1nc(-c2ccc(Cl)cc2Cl)c(Cl)c1C)C(=O)OC [Compound 21]	5 (herbicidal effect of not less than 90% by weight)	5 (herbicidal effect of not less than 90% by weight)	4 (herbicidal effect of not less than 70% by weight and less than 90% by weight)	5 (herbicidal effect of not less than 90% by weight)	1 (herbicidal effect of not less than 10% by weight and less than 30% by weight)	0 (herbicidal effect of not less than 0% by weight and less than 10% by weight)	4 (herbicidal effect of not less than 70% by weight and less than 90% by weight)	4 (herbicidal effect of not less than 70% by weight and less than 90% by weight)	4 (herbicidal effect of not less than 70% by weight and less than 90% by weight)	4 (herbicidal effect of not less than 70% by weight and less than 90% by weight)	0 (herbicidal effect of not less than 0% by weight and less than 10% by weight)	0 (herbicidal effect of not less than 0% by weight and less than 10% by weight)	5 (herbicidal effect of not less than 90% by weight)	5 (herbicidal effect of not less than 90% by weight)	5 (herbicidal effect of not less than 90% by weight)	4 (herbicidal effect of not less than 70% by weight and less than 90% by weight)	0 (herbicidal effect of not less than 0% by weight and less than 10% by weight)
COC=C(Cn1nc(-c2c(Cl)cccc2Cl)cc1C)C(=O)OC [Compound 9]	4 (herbicidal effect of not less than 70% by weight and less than 90% by weight)	4 (herbicidal effect of not less than 70% by weight and less than 90% by weight)	4 (herbicidal effect of not less than 70% by weight and less than 90% by weight)	4 (herbicidal effect of not less than 70% by weight and less than 90% by weight)	0 (herbicidal effect of not less than 0% by weight and less than 10% by weight)	0 (herbicidal effect of not less than 0% by weight and less than 10% by weight)	5 (herbicidal effect of not less than 90% by weight)	4 (herbicidal effect of not less than 70% by weight and less than 90% by weight)	4 (herbicidal effect of not less than 70% by weight and less than 90% by weight)	4 (herbicidal effect of not less than 70% by weight and less than 90% by weight)	0 (herbicidal effect of not less than 0% by weight and less than 10% by weight)	0 (herbicidal effect of not less than 0% by weight and less than 10% by weight)	3 (herbicidal effect of not less than 50% by weight and less than 70% by weight)	3 (herbicidal effect of not less than 50% by weight and less than 70% by weight)	3 (herbicidal effect of not less than 50% by weight and less than 70% by weight)	3 (herbicidal effect of not less than 50% by weight and less than 70% by weight)	0 (herbicidal effect of not less than 0% by weight and less than 10% by weight)
COC=C(Cn1nc(-c2ccc(Cl)c(Cl)c2)c(Cl)c1C)C(=O)OC [Compound 24]	4 (herbicidal effect of not less than 70% by weight and less than 90% by weight)	4 (herbicidal effect of not less than 70% by weight and less than 90% by weight)	4 (herbicidal effect of not less than 70% by weight and less than 90% by weight)	4 (herbicidal effect of not less than 70% by weight and less than 90% by weight)	0 (herbicidal effect of not less than 0% by weight and less than 10% by weight)	0 (herbicidal effect of not less than 0% by weight and less than 10% by weight)	4 (herbicidal effect of not less than 70% by weight and less than 90% by weight)	4 (herbicidal effect of not less than 70% by weight and less than 90% by weight)	4 (herbicidal effect of not less than 70% by weight and less than 90% by weight)	4 (herbicidal effect of not less than 70% by weight and less than 90% by weight)	0 (herbicidal effect of not less than 0% by weight and less than 10% by weight)	0 (herbicidal effect of not less than 0% by weight and less than 10% by weight)	4 (herbicidal effect of not less than 70% by weight and less than 90% by weight)	3 (herbicidal effect of not less than 50% by weight and less than 70% by weight)	3 (herbicidal effect of not less than 50% by weight and less than 70% by weight)	3 (herbicidal effect of not less than 50% by weight and less than 70% by weight)	0 (herbicidal effect of not less than 0% by weight and less than 10% by weight)
